From patent US20130052646A1, “POSITIVE AND NEGATIVE […] FOR USE IN TH[…]” (Mascoma Corporation, priority 2009, published 2013)

How the values were obtained:
Format in all cases: cell-based, Clostridium thermocellum
C. thermocellum [1] = assay: Plating of cured Δhpt strain on thiamphenicol; conditions: plasmid-cured Δhpt strain; after 5 days
Description: To verify this, the new strain was grown up overnight and plated on thiamphenicol.

C. thermocellum [2] = assay: Plating in the presence of FUDR (tdk negative selection); conditions: FIG. 18
Description: To this end, the C. thermocellum pyrF::tdk strain and the control C. thermocellum ΔpyrF strain were plated in the presence of 10 μg/ml FUDR. For each culture, a 10 dilution was used for the plating.

C. thermocellum [3] = assay: Growth in rich medium with uracil supplementation; conditions: ΔpyrF strain; rich medium with additional 40 μg/ml uracil; 55° C.
Description: Growth rate measurements were performed in a 200 μl volume in a 96-well plate at 55° C. The optical density at 600 nm was read by a Powerwave XS platereader customized by the manufacturer to incubate up to 68° C. (BioTek). The plates were shaken continuously and read at three minute intervals. Each sample was measured in quadruplicate. The specific growth rate (0 was determined by measuring the slope of the natural log-transformed OD readings. A two hour sliding window of OD readings between 0.08 and 1.00 were used for determination of maximum rate μmax. In all cases, the R-squared value was greater than 0.99.
The growth of the pta::gapDHp-cat strain was compared to the wt and ΔpyrF strains in rich medium, with and without uracil supplementation. […] End product analysis was performed on batch fermentations started at pH 7.0 with 5 g/l cellobiose as the primary carbon source under anaerobic conditions with a nitrogen atmosphere and 80 ml working volume. After 48 hours of fermentation the wt and ΔpyrF strain produced about 1 g/l of acetic acid whereas the acetic acid production of the pta::gapDHp-cat was indistinguishable from background levels (average 0.03 g/l).

C. thermocellum [4] = assay: Plating on media containing 5-FOA (pyrF negative selection); conditions: for colony survival after plating on 5-FOA: rich media containing 500 μg of 5-FOA; for growth on media containing 5-FOA: FIG. 8
Description: Plasmid pMU482 was transformed into the wild type C. thermocellum strain 1313 and selected on a rich media containing thyamphenicol (at the concentration of 6 μg/ml) to select for cells containing the cat marker encoded on the plasmid. A schematic displaying the creation of the knockout vector is depicted in FIG. 2. Several colonies that resulted from the selection scheme were selected for PCR analysis to confirm that the plasmid had been transformed into the cells. A transformed colony was diluted into liquid, rich medium containing thyamphenicol at the concentration of 6 μg/ml and grown overnight. A culture containing pMU102 (control plasmid) was also grown similarly. The next day, each culture was serially diluted by ten fold (up to 10^−3) using fresh, rich media and 100 μL of the undiluted culture. Each of the dilutions were plated on rich media containing 500 μg of 5-FOA. A schematic of this plating strategy is depicted in FIG. 3.
The plasmid-free C. thermocellum ΔpyrF strain created above was tested to confirm that negative selection could be appropriately applied. Cells were grown and plated using media containing the toxic analog 5-fluoroorotic acid (5-FOA). The protein product of the pyrF gene converts 5-FOA into a toxic compound. Thus, the C. thermocellum ΔpyrF strain should be resistant to 5-FOA, but the wild type or a complemented strain should be susceptible to 5-FOA and unable to grow.

C. thermocellum [5] = assay: Plating on 8-azahypoxanthine (hpt negative selection, complementation); conditions: 500 ug/ml 8-AzaH, FIG. 26
Description: Plasmid pMU1657 was transformed into the wild type C. thermocellum strain 1313 and selected for on chloramphenicol. Several colonies were selected and the transformed plasmid was verified by PCR. A colony was diluted into C. thermocellum growth medium and grown overnight. The following morning the dilution closest to an O.D of ˜1.0 was serially diluted and plated on defined medium containing 500 ug/ml 8-azahypoxanthine. Two days later, colonies were observed on the dilution representing 10^−3. Six colonies were selected and PCR screens were performed to verify that the hpt gene had been deleted from the chromosome. After PCR amplification, the expected size of the wild type product having no deletion is 3380 bp and the expected size of the hpt deletion is 2820 bp. […] The colonies were subsequently screened by PCR amplification to confirm that the plasmid had been cured (or lost). In FIG. 25, lane (P) represents the plasmid control that is 3750 bp in size. Colonies that have lost the plasmid would have no product migrating in the lane. The lack of product in lanes 1-6 representing the six different colonies confirm that the plasmid had been cured.
To provide stronger support for this conclusion, the knockout plasmid was reintroduced to look for complementation of the phenotype. […]

CS(=O)(=O)c1ccc([C@@H](O)[C@@H](CO)NC(=O)C(Cl)Cl)cc1 [thiamphenicol]
resistant colonies on thiamphenicol (C. thermocellum [1]): no thiamphenicol resistant colonies were observed

O=c1[nH]c(=O)n([C@H]2C[C@H](O)[C@@H](CO)O2)cc1F [FUDR, fluorodeoxyuridine]
growth in the presence of FUDR (C. thermocellum [2]; control ΔpyrF strain without tdk, 10 μg/ml FUDR): survived | growth in the presence of FUDR (C. thermocellum [2]; pyrF::tdk strain, 10 μg/ml FUDR with addition of thymidine): did grow | growth in the presence of FUDR (C. thermocellum [2]; pyrF::tdk strain, 10 μg/ml FUDR): did not grow

O=c1cc[nH]c(=O)[nH]1 [uracil]
effect of uracil supplementation on growth (C. thermocellum [3]): eliminated the growth defect

O=C(O)c1[nH]c(=O)[nH]c(=O)c1F [5-FOA, 5-fluoroorotic acid]
colony survival after plating on 5-FOA (C. thermocellum [4]; colonies containing wild-type pyrF): did not survive | colony survival after plating on 5-FOA (C. thermocellum [4]; colonies that contained the pyrF disruption): visible | growth on media containing 5-FOA (C. thermocellum [4]; plasmid-free ΔpyrF strain (also with control plasmid pMU102)): able to grow | growth on media containing 5-FOA (C. thermocellum [4]; ΔpyrF strain transformed with complementing plasmid pMU612 expressing pyrF): no growth

O=c1[nH]cnc2nn[nH]c12 [8-azahypoxanthine]
sensitivity to 8-azahypoxanthine (C. thermocellum [5]; Δhpt strain containing complementing plasmid pMU1657): sensitivity comparable to wild type levels | sensitivity to 8-azahypoxanthine (C. thermocellum [5]; Δhpt strain): completely insensitive
